# Entries after “also recorded” stand apart in the source; their conditions may differ.
# System: inbred transgenic mice with mutant thyroid hormone receptor beta (TRβPV) and wild-type mice
# Experiment: Behavioral analysis of locomotor activity (light beam breaks) after methylphenidate
# Assay type: in vivo, mouse
# Conditions: methylphenidate 7.5 mg/kg or 30.0 mg/kg on day 3, activity assessed for 3 hours following injection
# Protocol: Animals were kept on a light-dark schedule of 12 hours with lights on at 6:00 a.m. Behavioral tests were started between 4:30 p.m. and 5:30 p.m. Eleven-to sixteen-week-old mice were assessed in a 15×30 cm cage with four light beams crossing the cage on the long axis. Locomotor activity was measured by computer-automated counting of the number of times a light beam was blocked (San Diego Instruments, San Diego, Calif.). Activity was measured for 3 hours upon introduction of each animal to the chamber on day 1 to measure baseline/novel behavior levels (see FIG. 3), and the animals remained in the chambers for the length of the experiment (3 days) to permit drug response in an acclimated environment. On day 2, animals were injected with saline (i.p),and on day 3 with methylphenidate (7.5 mg/kg or 30.0 mg/kg). Food and water were provided ad libitum, and activity was assessed for 3 hours following injection. Activity scores were subjected to analysis of variance (ANOVA) analysis to compare the groups by genotype and injection status.
structure (smiles),measurement,setting,value
COC(=O)C(c1ccccc1)C1CCCCN1 (centres unmarked) [methylphenidate],level of locomotor activity in response to methylphenidate,heterozygous and homozygous TRβ PV mutant inbred mice,decreased levels of activity; also recorded: responded to treatment; also recorded: reduced their level of activity; also recorded: level of activity in these mice was reduced
same,level of locomotor activity in response to methylphenidate,wild-type mice,increase in activity

# Source: patent publication US20020133837A1, “Transgenic animals at a nuclear hormone receptor locus” (priority 2001, published 2002)
